pIC50, pKi: −log10 of the molar value.
Experiments:
Histamine H3 receptor [1] = target: Histamine H3 receptor (Homo sapiens, UniProt Q9Y5N1); experiment: Displacement of [3H]-(R)-alpha-methylhistamine from human H3 receptor expressed in HEK293T cells after 120 mins by scintillation counting; format: cell-based, HEK-293T
Histamine H3 receptor [2] = target: Histamine H3 receptor (Rattus norvegicus, UniProt Q9QYN8); experiment: Displacement of [3H]-(R)-alpha-methylhistamine from rat H3 receptor expressed in HEK293T cells after 120 mins by scintillation counting; format: cell-based, HEK-293T
[3] = target: Voltage-gated inwardly rectifying potassium channel KCNH2 (Homo sapiens, UniProt Q12809); experiment: Inhibition of human ERG by IonWorks assay
[4] = target: Sodium-dependent serotonin transporter (Homo sapiens, UniProt P31645); experiment: Binding affinity to 5-HT transporter
D(2) dopamine receptor = D(2) dopamine receptor (Homo sapiens, UniProt P14416); experiment: Binding affinity to D2 receptor
[5] = target: 5-hydroxytryptamine receptor 2B (Homo sapiens, UniProt P41595); experiment: Binding affinity to 5-HT2B receptor
[6] = target: T1, 5-hydroxytryptamine receptor 1A (Homo sapiens, UniProt P08908); experiment: Binding affinity to 5-HT1A receptor
T1 sequence (P08908 whole entry): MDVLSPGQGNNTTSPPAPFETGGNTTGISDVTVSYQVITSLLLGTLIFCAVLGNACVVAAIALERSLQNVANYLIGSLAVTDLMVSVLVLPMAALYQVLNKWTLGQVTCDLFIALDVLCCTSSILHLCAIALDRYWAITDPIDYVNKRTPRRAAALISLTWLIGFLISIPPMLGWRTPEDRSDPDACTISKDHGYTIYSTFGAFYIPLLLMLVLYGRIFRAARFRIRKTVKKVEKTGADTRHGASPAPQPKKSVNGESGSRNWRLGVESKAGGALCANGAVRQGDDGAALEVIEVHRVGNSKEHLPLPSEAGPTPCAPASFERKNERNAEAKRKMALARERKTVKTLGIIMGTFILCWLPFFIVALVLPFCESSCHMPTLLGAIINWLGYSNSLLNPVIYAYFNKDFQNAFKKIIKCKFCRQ

Histamine H2 receptor = Histamine H2 receptor (Homo sapiens, UniProt P25021); experiment: Binding affinity to H2 receptor
[7] = target: 5-hydroxytryptamine receptor 6 (Homo sapiens, UniProt P50406); experiment: Binding affinity to 5-HT6 receptor
[8] = target: Sodium-dependent dopamine transporter (Homo sapiens, UniProt Q01959); experiment: Binding affinity to DAT
Histamine H1 receptor = Histamine H1 receptor (Homo sapiens, UniProt P35367); experiment: Binding affinity to H1 receptor
[9] = target: T2, Alpha-2A adrenergic receptor (Homo sapiens, UniProt P08913); experiment: Binding affinity to alpha-2A receptor
T2 sequence (P08913 whole entry): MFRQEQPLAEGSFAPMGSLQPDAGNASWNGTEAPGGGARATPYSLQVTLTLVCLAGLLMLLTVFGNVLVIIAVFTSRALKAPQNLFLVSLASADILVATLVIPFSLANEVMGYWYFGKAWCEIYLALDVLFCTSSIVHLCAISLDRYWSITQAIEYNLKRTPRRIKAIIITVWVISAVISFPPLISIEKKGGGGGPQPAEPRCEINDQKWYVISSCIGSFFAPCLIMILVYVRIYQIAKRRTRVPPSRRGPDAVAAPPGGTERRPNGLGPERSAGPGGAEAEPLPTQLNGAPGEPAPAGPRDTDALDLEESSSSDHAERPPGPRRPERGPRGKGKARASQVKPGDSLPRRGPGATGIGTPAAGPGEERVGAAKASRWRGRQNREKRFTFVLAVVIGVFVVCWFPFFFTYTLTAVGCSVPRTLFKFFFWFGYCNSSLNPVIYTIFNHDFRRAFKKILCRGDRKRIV

hERG (KCNH2) = hERG (KCNH2) (Homo sapiens, UniProt Q12809); experiment: Inhibition of human ERG at 10 uM by IonWorks assay
Sequence of hERG (KCNH2) (Q12809 whole entry): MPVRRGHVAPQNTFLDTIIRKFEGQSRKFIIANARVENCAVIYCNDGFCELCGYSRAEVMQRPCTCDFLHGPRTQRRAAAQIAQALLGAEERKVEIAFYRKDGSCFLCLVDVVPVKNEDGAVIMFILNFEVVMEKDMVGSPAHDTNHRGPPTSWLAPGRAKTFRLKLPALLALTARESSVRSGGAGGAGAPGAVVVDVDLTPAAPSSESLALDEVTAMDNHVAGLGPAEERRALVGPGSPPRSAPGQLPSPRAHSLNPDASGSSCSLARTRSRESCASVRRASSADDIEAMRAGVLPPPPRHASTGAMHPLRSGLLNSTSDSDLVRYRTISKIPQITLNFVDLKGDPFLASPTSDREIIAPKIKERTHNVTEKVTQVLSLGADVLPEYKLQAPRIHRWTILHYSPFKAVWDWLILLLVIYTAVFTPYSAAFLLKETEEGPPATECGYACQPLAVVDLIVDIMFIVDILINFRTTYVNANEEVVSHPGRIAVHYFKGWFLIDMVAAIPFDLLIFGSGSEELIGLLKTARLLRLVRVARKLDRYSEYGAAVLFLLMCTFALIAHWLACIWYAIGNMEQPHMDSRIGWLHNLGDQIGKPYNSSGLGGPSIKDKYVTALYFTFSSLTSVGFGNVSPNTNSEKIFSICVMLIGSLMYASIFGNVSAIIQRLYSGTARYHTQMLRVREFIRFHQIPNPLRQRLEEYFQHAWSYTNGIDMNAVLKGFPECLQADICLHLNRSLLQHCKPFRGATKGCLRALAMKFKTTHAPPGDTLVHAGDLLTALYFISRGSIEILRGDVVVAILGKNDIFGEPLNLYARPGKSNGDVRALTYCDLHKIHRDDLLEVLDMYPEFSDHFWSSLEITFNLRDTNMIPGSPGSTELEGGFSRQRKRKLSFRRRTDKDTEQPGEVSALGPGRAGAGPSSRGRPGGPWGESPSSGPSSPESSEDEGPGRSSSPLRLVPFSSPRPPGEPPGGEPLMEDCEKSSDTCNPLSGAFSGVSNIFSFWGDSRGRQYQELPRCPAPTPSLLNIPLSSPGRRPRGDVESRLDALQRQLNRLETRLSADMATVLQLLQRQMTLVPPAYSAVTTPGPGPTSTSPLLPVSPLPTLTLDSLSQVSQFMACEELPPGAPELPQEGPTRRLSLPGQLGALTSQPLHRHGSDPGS

Sequence of Histamine H3 receptor (Rattus norvegicus, UniProt Q9QYN8) (Q9QYN8 whole entry): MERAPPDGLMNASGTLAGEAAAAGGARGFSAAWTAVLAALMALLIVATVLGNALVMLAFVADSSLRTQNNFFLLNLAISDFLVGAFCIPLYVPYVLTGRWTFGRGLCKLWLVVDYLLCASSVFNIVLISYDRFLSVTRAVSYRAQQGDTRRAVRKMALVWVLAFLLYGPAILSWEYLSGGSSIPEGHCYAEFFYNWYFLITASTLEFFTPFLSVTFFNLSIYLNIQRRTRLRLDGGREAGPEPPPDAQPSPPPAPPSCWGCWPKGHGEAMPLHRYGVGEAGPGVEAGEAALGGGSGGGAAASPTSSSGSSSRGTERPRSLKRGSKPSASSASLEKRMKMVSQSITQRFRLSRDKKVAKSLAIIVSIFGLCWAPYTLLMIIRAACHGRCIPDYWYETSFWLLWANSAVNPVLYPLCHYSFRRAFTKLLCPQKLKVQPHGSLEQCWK
Sequence of Histamine H1 receptor (P35367 whole entry): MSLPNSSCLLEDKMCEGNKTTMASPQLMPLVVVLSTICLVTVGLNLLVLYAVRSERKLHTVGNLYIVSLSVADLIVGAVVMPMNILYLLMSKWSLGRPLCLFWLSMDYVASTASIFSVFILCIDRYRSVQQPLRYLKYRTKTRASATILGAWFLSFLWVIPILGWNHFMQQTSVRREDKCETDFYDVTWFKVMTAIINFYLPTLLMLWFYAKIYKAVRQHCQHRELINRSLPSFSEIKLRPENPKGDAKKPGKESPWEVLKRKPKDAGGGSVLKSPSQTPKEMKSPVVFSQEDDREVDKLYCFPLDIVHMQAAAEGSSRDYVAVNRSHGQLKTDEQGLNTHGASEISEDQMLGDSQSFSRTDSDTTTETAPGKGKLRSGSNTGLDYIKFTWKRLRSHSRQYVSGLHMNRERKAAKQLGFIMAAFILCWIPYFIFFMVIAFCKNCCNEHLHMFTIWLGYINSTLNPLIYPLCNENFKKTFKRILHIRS
Sequence of Histamine H3 receptor (Homo sapiens, UniProt Q9Y5N1) (Q9Y5N1 whole entry): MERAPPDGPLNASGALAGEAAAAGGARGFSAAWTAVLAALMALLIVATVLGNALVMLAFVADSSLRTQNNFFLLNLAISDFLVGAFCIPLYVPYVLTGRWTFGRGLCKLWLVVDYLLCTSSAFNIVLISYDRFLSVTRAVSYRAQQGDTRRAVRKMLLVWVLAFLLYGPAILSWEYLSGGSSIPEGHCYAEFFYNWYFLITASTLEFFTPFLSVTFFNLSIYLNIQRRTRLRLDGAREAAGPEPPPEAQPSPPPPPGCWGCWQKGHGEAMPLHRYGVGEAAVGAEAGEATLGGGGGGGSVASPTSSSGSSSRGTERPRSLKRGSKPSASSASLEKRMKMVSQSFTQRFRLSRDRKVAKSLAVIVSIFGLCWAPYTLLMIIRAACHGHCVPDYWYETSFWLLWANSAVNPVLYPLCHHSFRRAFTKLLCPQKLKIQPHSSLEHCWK
Sequence of 5-hydroxytryptamine receptor 6 (P50406 whole entry): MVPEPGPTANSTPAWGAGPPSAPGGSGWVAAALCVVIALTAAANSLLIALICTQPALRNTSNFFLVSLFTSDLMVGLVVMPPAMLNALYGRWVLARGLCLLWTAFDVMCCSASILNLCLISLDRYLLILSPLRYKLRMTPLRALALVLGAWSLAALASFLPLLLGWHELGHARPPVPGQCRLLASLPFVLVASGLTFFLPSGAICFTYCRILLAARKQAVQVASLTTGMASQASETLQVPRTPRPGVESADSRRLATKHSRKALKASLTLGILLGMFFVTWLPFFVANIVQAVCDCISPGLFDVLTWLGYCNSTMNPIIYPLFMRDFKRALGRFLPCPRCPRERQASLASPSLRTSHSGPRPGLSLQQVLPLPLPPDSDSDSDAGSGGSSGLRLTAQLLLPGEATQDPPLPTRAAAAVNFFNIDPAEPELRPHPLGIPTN
Sequence of D(2) dopamine receptor (P14416 whole entry): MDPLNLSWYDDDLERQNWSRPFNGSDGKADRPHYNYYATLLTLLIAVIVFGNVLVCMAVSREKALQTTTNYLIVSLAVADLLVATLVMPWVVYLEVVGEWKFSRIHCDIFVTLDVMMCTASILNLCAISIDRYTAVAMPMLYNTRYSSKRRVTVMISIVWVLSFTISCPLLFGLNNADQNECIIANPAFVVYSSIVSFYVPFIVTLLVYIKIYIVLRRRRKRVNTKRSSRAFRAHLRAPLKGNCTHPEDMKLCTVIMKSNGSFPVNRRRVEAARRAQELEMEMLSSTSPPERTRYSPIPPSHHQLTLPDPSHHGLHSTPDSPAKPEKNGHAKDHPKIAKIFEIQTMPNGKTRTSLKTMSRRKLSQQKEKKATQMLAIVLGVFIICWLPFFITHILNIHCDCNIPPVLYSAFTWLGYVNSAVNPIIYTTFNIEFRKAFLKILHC
Sequence of Sodium-dependent dopamine transporter (Q01959 whole entry): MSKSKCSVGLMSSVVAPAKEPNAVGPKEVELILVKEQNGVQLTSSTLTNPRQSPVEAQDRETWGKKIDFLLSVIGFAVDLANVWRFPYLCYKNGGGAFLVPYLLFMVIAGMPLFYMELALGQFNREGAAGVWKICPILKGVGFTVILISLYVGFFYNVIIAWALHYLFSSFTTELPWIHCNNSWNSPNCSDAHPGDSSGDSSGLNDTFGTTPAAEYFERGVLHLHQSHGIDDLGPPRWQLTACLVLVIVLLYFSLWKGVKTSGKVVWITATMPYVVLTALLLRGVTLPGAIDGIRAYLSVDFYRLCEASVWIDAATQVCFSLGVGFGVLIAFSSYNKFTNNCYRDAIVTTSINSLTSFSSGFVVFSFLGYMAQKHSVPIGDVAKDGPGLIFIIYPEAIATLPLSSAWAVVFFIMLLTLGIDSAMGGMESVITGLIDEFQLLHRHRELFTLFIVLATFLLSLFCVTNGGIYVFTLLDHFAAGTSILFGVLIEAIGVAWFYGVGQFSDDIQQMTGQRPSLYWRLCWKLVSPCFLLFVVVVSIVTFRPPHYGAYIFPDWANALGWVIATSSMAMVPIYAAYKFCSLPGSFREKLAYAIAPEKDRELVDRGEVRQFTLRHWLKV
Sequence of Sodium-dependent serotonin transporter (P31645 whole entry): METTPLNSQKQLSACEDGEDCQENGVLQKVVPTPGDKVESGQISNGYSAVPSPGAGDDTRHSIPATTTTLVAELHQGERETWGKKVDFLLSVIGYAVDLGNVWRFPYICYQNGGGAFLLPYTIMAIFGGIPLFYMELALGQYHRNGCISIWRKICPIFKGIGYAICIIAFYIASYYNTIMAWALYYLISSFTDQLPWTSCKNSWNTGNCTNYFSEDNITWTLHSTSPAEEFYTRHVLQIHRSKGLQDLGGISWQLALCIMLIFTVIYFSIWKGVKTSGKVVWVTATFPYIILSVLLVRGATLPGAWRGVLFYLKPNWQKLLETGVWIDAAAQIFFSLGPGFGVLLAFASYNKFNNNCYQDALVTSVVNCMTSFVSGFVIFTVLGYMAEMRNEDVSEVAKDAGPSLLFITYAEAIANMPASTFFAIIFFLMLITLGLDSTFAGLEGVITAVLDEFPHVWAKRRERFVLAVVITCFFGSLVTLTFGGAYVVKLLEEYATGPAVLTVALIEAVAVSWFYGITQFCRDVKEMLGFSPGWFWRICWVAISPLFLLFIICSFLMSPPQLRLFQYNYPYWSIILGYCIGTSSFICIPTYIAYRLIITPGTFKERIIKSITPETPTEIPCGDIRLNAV

SMILES	pKi (Histamine H3 receptor [1])	pKi (Histamine H3 receptor [2])	pIC50 [3]	other results
O=C1c2ccc(-c3cccc(C(F)(F)F)c3)cc2CCN1CCN1CCCC1	8.19	6.74	–	–
CNC(=O)c1ccc(-c2ccc3c(c2)CCN(CCN2CCCC2)C3=O)cc1	8.89	–	–	–
CCNC(=O)c1ccc(-c2ccc3c(c2)CCN(CCN2CCCC2)C3=O)cc1	8.92	–	–	–
CNC(=O)c1ccc(-c2ccc3c(c2)CCN(CCN2CCC[C@H]2C)C3=O)cc1	9.00	–	4.77	–
O=C1c2ccc(-c3ccc(F)cc3F)cc2CCN1CCN1CCCC1	8.09	6.82	–	–
CCNC(=O)c1ccc(-c2ccc3c(c2)CCN(CCN2CCC[C@H]2C)C3=O)cc1	9.00	–	5.13	pKi [4]: 6.52; pKi (D(2) dopamine receptor): < 5.00; pKi [5]: < 5.00; pKi [6]: 5.00; pKi (Histamine H2 receptor): < 5.00; pKi [7]: < 5.00; pKi [8]: < 5.00; pKi (Histamine H1 receptor): 5.14; pKi [9]: < 5.52
CN(C)C(=O)c1ccc(-c2ccc3c(c2)CCN(CCN2CCCC2)C3=O)c(F)c1	8.51	–	4.49	–
O=C(NC1CC1)c1ccc(-c2ccc3c(c2)CCN(CCN2CCCC2)C3=O)cc1	8.57	–	4.96	–
C[C@@H]1CCCN1CCN1CCc2c(cccc2-c2ccc(C#N)cc2)C1=O	7.66	–	–	inhibition at 10 µM (hERG (KCNH2)): 96%
C[C@@H]1CCCN1C(=O)c1ccc(-c2ccc3c(c2)CCN(CCN2CCCC2)C3=O)cc1	8.77	–	4.98	pKi [4]: 6.49; pKi (D(2) dopamine receptor): < 5.00; pKi [5]: < 5.00; pKi [6]: 5.01; pKi (Histamine H2 receptor): < 5.00; pKi [7]: < 5.00; pKi [8]: < 5.00; pKi (Histamine H1 receptor): < 5.00; pKi [9]: < 5.52
O=C(c1ccc(-c2ccc3c(c2)CCN(CCN2CCCC2)C3=O)cc1)C1CC1	8.22	–	–	inhibition at 10 µM (hERG (KCNH2)): 65%
N#Cc1ccc(-c2ccc3c(c2)CCN(CCCN2CCCC2)C3=O)cc1	8.16	6.57	–	–
CNC(=O)c1ccc(-c2ccc3c(c2)CCN(CCN2CCCC2)C3=O)c(F)c1	8.77	–	–	–
N#Cc1cccc(-c2ccc3c(c2)CCN(CCN2CCCC2)C3=O)c1	8.47	7.14	–	–
N#Cc1ccc(-c2ccc3c(c2)CCN(CCN2CCCC2)C3=O)cc1	8.41	7.60	–	–
O=C1c2ccc(-c3ccc(F)cc3)cc2CCN1CCN1CCCC1	7.96	7.07	–	–
C[C@@H]1CCCN1CCN1CCc2cc(-c3ccc(C(=O)N4CCCC4)cc3)ccc2C1=O	9.70	–	–	pKi [4]: 6.09; pKi (D(2) dopamine receptor): < 5.00; pKi [5]: < 5.00; pKi [6]: 4.91; pKi (Histamine H2 receptor): < 5.00; pKi [7]: < 5.00; pKi [8]: < 5.00; pKi (Histamine H1 receptor): 5.06; pKi [9]: < 5.52
O=C1c2ccc(-c3ccncc3)cc2CCN1CCN1CCCC1	8.11	–	–	inhibition at 10 µM (hERG (KCNH2)): 93%
C[C@H]1CCCN1CCN1CCc2cc(-c3ccc(C#N)cc3)ccc2C1=O	–	7.31	–	–
O=C(NC1CCCC1)c1ccc(-c2ccc3c(c2)CCN(CCN2CCCC2)C3=O)cc1	8.72	–	5.09	pKi [4]: 6.77; pKi (D(2) dopamine receptor): < 5.00; pKi [5]: < 5.00; pKi [6]: 5.06; pKi (Histamine H2 receptor): < 5.00; pKi [7]: < 5.00; pKi [8]: < 5.00; pKi (Histamine H1 receptor): 5.02; pKi [9]: < 5.52
O=C(c1ccc(-c2ccc3c(c2)CCN(CCN2CCCC2)C3=O)c(F)c1)N1CCCC1	8.49	–	4.95	–
O=C1c2ccc(-n3cnc4ccccc43)cc2CCN1CCN1CCCC1	9.10	6.76	–	–
C[C@@H]1CCCN1CCN1CCc2cc(-c3ccc(F)cc3)ccc2C1=O	8.92	7.64	6.52	–
O=C1c2ccc(-c3ccc(C(F)(F)F)cc3)cc2CCN1CCN1CCCC1	8.03	7.00	–	–

— ChEMBL document CHEMBL2029265, “2-(Pyrrolidin-1-yl)ethyl-3,4-dihydroisoquinolin-1(2H)-one derivatives as potent and selective histamine-3 receptor antagonists” (J Med Chem, 2012)
